Common to all, as to assay type: cell-based
One assay deals with M. abscessus ATCC 19977. Description: In vitro MIC against NTM, microbroth dilution. The note with it: Mycobacteroides abscessus, ATCC19977, 168 h; 7 days. In general terms: In broth dilution the organism is exposed to a series of concentrations in liquid medium.
Assay [1] has as its system M. avium ATC 700891 (MAC 101). Kind of assay: In vitro MIC against NTM, microbroth dilution. As to conditions: Mycobacterium avium, 168 h; 7 days.
For assay [2], the system named is M. abscessus ATCC 19977 in THP-1 cells. Description: Ex vivo (intra-macrophage) activity in infected THP-1 cells, resazurin. The procedure: (§1) THP-1 cells were infected with either M. avium or M. abscessus at an MOI of 10 for 4 h prior to treatment. Following infection, cells were washed twice with PBS to remove non-phagocytosed bacteria. Fresh medium was then added, and cells were treated with concentrations ranging from 64 to 0.24 µg/mL and incubated for 24 h at 37°C with 5% CO2. Following 24 h of treatment, cells were treated with resazurin (0.04 mg/mL) and incubated for an additional 3–5 days. Absorbance was measured for each well at 570 and 600 nm. The percent growth reduction was calculated relative to treated and untreated controls.

Assay [3] relates to M. avium ATC 700891 (MAC 101) in THP-1 cells. The assay is described as above. The procedure: as §1

≈ marks a conversion by molar mass, not a printed value.

For orientation: MIC means the lowest concentration found to suppress growth. A low value points to a more susceptible organism. As for `CC[C@H]1OC(=O)[C@H](C)[C@@H](O[C@H]2C[C@@](C)(OC)[C@@H](O)[C@H](C)O2)[C@H](C)[C@@H](O[C@@H]2O[C@H](C)C[C@H](N(C)C)[C@H]2O)[C@](C)(OC)C[C@@H](C)C(=O)[C@H](C)[C@@H](O)[C@]1(C)O` [Clarithromycin], the MIC in the assay with M. abscessus ATCC 19977 amounted to 1.4 µM (≈ 1.05 µg/mL); in assay [1], 0.08 µM (≈ 0.0598 µg/mL). Also, the “Ex vivo (>90% inhibition), M. abscessus ATCC 19977” value in assay [2] turned out to be 86 µM. In addition, in assay [3], the “Ex vivo (>90% inhibition), M. avium ATC 700891 (MAC 101)” value was 171 µM.
